Reference: US20250268748A1, “TREATMENT OF SPINAL MUSCULAR ATROPHY BY INDUCING HEAT SHOCK RESPONSE” (THE RESEARCH INSTITUTE AT NATIONWIDE CHILDREN'S HOSPITAL, priority 2016, published 2025)

Key:
[1] = system: SMN2 full length splicing in MCF-7 cells; test: 17-DMAG HSP90 inhibition, RT-PCR of SMN exon 7 splicing with or without heat shock; assay type: cell-based; details: for SMN2 full length splicing: 8 hours
Protocol: FIG. 7 provide an image and a graph showing that HSP90 inhibition prevents heat-induced SMN splicing correction. HSP90 inhibition was performed with 17-DMAG in MCF-7 cells. Dose responses were analyzed at 0, 10, 20, 40 nM 17-DMAG for 8 hours, with or without 41° C. heat treatment. Total RN A was harvested and RT-PCR amplification of SMN transcripts was used to observe splicing levels of exon 7. Significance levels are: * p-value<0.05, **p-value <0.01.
To validate the role of HSP90 in the SMN2 splicing under heat shock, the HSP90 ATPase inhibitor, 17-DMAG was administered to MCF-7 cells. 17-DMAG was administered at 0, 10 nM, 20 nM, and 40 nM concentrations the same time as the heat shock treatment, for the duration of 8 hours. Experiments were performed in parallel at 37° C. and 41° C. […] (FIG. 7). […] Full length SMN2 is quantitated for all samples and three trials are graphed, showing significant alterations in SMN splicing.
17-DMAG (17-Dimethylaminoethylamino-17-demethoxygeldanamycin) was purchased from Cayman Chemicals and resuspended in DMSO to a 20 mM stock. Then treatments were administered to cultured cells at a density of 75% in 6 well plates.
Cells grown under normal conditions (37° C.) were grown in a 5% C02, humidified incubator. Cells grown under heat shock conditions (38°-41° C.) were cultured at 5% C02, humidified incubators set to respective temperatures and monitored for temperature fluctuations with calibrated digital thermometer. Cells were maintained at their temperature treatment for the duration of the time point and harvested for RNA or protein directly following treatment.
Total RNA was isolated from samples using RNeasy kits (Qiagen). cDNA was created from RNA with Roche Transcriptor Reverse Transcriptase. cDNA was created from 1.5 ug of total RNA using random hexamers (Roche). PCR was performed with Sigma Taq Polymerase to detect exon 7 splicing of SMN1 and SMN2 transcripts. Primers were designed to flank exon 7 to visualize both full length and exon-skipped products: forward primer in exon 6 and reverse primer in exon 8. PCR cycles were performed with the following conditions: annealing temperature 62° C., 30 sec; 72° C. extension, 1 min; for 35 cycles. Importantly, there exists a unique digestion site (Ddel) within this PCR amplicon in exon 8 of SMN2. Therefore, to distinguish between SMN1 and SMN2transcripts, PCR products were digested with the enzyme Ddel. Subsequent digested PCR products were then resolved on 2.5% agarose gels (product sizes: SMN1 full-length: 507 bp, SMN1A7: 453 bp, SMN2 full-length: 392 bp, SMN2M: 338 bp). Splicing ratios were determined by densitometry (ImageQuant software, GE Healthcare Life Sciences) and statistical analysis (two tailed t test) performed using Graphpad Prism software.

[2] = system: SMN2 exon 7 inclusion in differentiated SH-SY5Y cells; test: Oxidative stress treatment, RT-PCR of SMN2 splicing; assay type: cell-based; details: 20 μM for 24 hours (oxidative stress)
Protocol: FIGS. 2A-2C provide graphs and images showing that heat shock increases the functional splicing product of SMN2 in a dose and time-dependent manner. A. Neuroblastoma cell line, SHSY-5Y, were differentiated for 7-9 days in 5 μM retinoic acid and then treated with various stresses to characterize the level of SMN2 as a stress-responsive gene. RNA splicing levels of SMN1 and 2 were observed by performing RTPCR analysis on total mRNA harvested from cell lysates. […] B. To test the cell-type specificity of the heat shock effect on SMN splicing, we performed a heat shock treatment on several cell lines. All treatments were performed with 24 hours of 41° C. and compared with NT (37° C.) quantitation is shown (n-3). This treatment was performed in Differentiated SHSY-5Y cells, SMA patient fibroblasts (GM03813), SMA carrier fibroblasts (GM03814), and a breast cancer cell line (MCF-7) cells. Heat treatment induces a significant change in splicing in all cell lines tested. C. To test the duration of heat treatment necessary for heat shock induced splicing correction a time course was performed. Differentiated SHSY-5Y cells were treated with 41° C. for 1, 4, 8, and 24 hour time intervals. D. To test the quantity of heat required to elicit splicing correction, a heat treatment dose response was performed. Differentiated SHSY-5Y cells were treated with temperatures from 37° to 41° C. for 8 hours. […]

| Structure (SMILES) | SMN2 full length splicing ([1]; 10 nM, 37° C.) | SMN2 full length splicing ([1]; 10 nM, 41° C.) | SMN2 full length splicing ([1]; 20 nM, 37° C.) | SMN2 full length splicing ([1]; 20 nM, 41° C.) | SMN2 full length splicing ([1]; 40 nM, 37° C.) | SMN2 full length splicing ([1]; 40 nM, 41° C.) | heat shock-induced full length SMN2 splicing (summary statement) ([1]; heat shock) | SMN2 exon 7 inclusion [2] |
| --- | --- | --- | --- | --- | --- | --- | --- | --- |
| CO[C@H]1/C=C\C=C(/C)C(=O)NC2=CC(=O)C(NCCN(C)C)=C(C[C@@H](C)C[C@H](OC)[C@H](O)[C@@H](C)/C=C(\C)[C@@H]1OC(N)=O)C2=O [17-DMAG, 17-Dimethylaminoethylamino-17-demethoxygeldanamycin] | significant decrease | significantly decreased the full length splicing to even below baseline splicing at 37 °C | began to approach basal splicing levels | significantly decreased the full length splicing to even below baseline splicing at 37 °C | began to approach basal splicing levels | significantly decreased the full length splicing to even below baseline splicing at 37 °C | prevents | – |
| OO [HO2] | – | – | – | – | – | – | – | mild decreases in exon 7 inclusion |
